Reference: US6683103B2, “Sulfonamides for treatment of endothelin-mediated disorders” (Texas Biotechnology Corporation, priority 1997, dated 2004)

What was measured:
human ETA receptors = biological target: T1, human ETA receptors (Homo sapiens, UniProt P25101); experiment: Binding Test #1: inhibition of 125I-ET-1 binding to ETA receptors (TE 671 cell membranes); settings: Table 1; † incubation at 24° C.; read-out: ETA
T1 construct: endogenous in cells; host or cells: TE 671 cells (ATCC HTB 139)
T1 sequence (P25101 21-427): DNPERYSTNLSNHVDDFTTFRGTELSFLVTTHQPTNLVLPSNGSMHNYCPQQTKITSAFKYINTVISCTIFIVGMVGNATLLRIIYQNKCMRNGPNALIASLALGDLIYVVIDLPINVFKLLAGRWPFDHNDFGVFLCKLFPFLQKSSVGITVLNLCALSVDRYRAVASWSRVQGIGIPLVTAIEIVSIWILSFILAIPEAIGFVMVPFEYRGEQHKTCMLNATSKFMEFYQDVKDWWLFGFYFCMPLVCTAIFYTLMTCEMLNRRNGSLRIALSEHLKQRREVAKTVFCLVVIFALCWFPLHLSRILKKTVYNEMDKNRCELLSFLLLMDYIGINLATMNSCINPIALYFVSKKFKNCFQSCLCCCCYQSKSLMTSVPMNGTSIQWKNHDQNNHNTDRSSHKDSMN
How it was run: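 Radioligand competition in triplicate: ¹²⁵I-endothelin-1 displaced by test compound (1 nM–100 μM final) from ETA-bearing TE 671 cell membranes in HEPES pH 7.4 binding buffer with NaCl, MgCl2 and bacitracin. Incubation 16–18 h at 4 °C (or at 24 °C); 80 nM ET-1 defines nonspecific binding; pellet radioactivity gives percent inhibition.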

[1] = Oral half-life and peak plasma levels in rat; assay type: in vivo
Text: As used herein, bioavailability refers to the rate and extent of absorption. Methods for determining bioavailability are well known to those of skill in the art. For example, bioavailability of any of the compounds described herein can be determined empirically by administration of the compound to an animal, followed by taking blood samples over time and measuring the blood concentration of the compound. In vivo half life (t½) is defined as the time it takes for the concentration of the compound in the blood to be reduced by one-half. Estimations of the area under the curve for intravenous administration can be used to estimate the area under the curve for oral administration, yielding bioavailability data. See, e.q., Milo Gibal (1991) Biopharmaceutics and Pharmacology, 4th edition (Lea and Sediger).
Table 4 lists oral half-life, bioavailability, and in vivo activity of selected exemplary compounds. The in vivo activity was measured in a pulmonary hypertension model and is a measure of the activity of the compounds at selected dosages.

[2] = tested on: Pulmonary Hypertension model; experiment: Pulmonary hypertension model, in vivo efficacy; design: species or system rat; key to in vivo Efficacy: ++ effective at 5 mg/kg; − no effect at 5 mg/kg; + effective at 15 mg/kg; settings: Pulmonary Hypertension model
Protocol: As used herein, efficacy refers to the maximal effect that can be produced by a compound. Efficacy can be determined by methods known to those of skill in the art. For example, it can be determined by the properties of the compound and its receptor-effector system and is reflected in the plateau of the concentration-effect curve. In vivo efficacy refers to efficacy which is determined in an animal model. For example, in vivo efficacy of the compounds described herein can be determined by amelioration of hypoxia-induced pulmonary hypertension in rat. In this context, in vivo efficacy refers to the ability of a compound to restore an elevated pulmonary artery pressure to a normal value. […] J. Physiol. […] The in vivo activity was measured in a pulmonary hypertension model and is a measure of the activity of the compounds at selected dosages.

[3] = Stability of solutions, percent remaining by HPLC; assay type: physicochemical; settings: 150 mg/mL; LABRASOL; 24 h

SMILES | IC50 (human ETA receptors) | Peak Plasma Levels ([1]; in vivo) | POt½ in Rat ([1]; oral) | in vivo Efficacy [2] | percent remaining (HPLC) [3]
Cc1cc2c(cc1CC(=O)c1sccc1S(=O)(=O)Nc1onc(C)c1Cl)OCO2 [N-(4-chloro-3-methyl-5-isoxazolyl)-2-[2-methyl-4,5-(methylenedioxy)phenylacetyl]thiophene-3-sulfonamide] | 0.0032 µM | 173 µg/mL | 4.1 h | ++ | 90.1%
Cc1noc(NS(=O)(=O)c2ccsc2C(=O)Cc2ccc3c(c2)OCO3)c1Cl [N-(4-chloro-3-methyl-5-isoxazolyl)-2-[(3,4-(methylenedioxy)phenylacetyl]thiophene-3-sulfonamide] | 0.021 µM |  |  |  | 
